Results published in patent US20250059139A1, “COMPOUNDS FOR TREATMENT OF CANCER” (THE JOHNS HOPKINS UNIVERSITY, priority 2021, published 2025).
Like-named read-outs stand apart in the source and are kept apart here.

Tests used:
[1] = target: T1, HDAC4-NCoR1 complex (Homo sapiens, UniProt P56524); test: SPR inhibition of HDAC4-NCoR1 interaction; format: binding
T1 construct: Full-length (fl) [A.A. 1-1082] recombinant human histone deacetylase 4 (rhHDAC4) protein; FLAG (N); GST (given as 'with or without'); host or cells: HEK293-T (HDAC4)
Method: (§1) Surface Plasmon Resonance (SPR) Binding Analysis. SPR analysis was performed on the Biacore 3000™ system using CM5 sensor chips, certified buffers (HBS-P—10 mM HEPES, 0.15 M NaCl, pH 7.4, containing 0.005% v/v Surfactant P; HBS-EP-HBS-P with 3 mM EDTA) and reagents for immobilization and surface regeneration from Biacore, GE Healthcare, Uppsala Sweden. Evaluation of sensorgrams was performed using the BIA-evaluation Software version 4.1 and GraphPad Prism 4. Buffer of protein reagents were changed to HBS-P on Zeba spin desalting columns (Thermo Scientific) prior to being used in SPR analysis (Isaacs 2013).
C. Inhibition of HDAC4-NCoR1 interaction by TasQ. The interaction between HDAC4 and NCoR1 was studied either by injecting NCoR over immobilized HDAC4 or with an alternative orientation where HDAC4 was passed over a surface with covalently coupled NCoR1. Whether TasQ can inhibit the formation of the functional HDAC4-NCoR1 complex was tested by pre-incubation with NCoR1 or HDAC4.
To confirm that TasQ inhibits formation of the functional complex between HDAC4 and NCoR1, fl-NCoR1 in solution was injected over immobilized fl-HDAC4 after pre-incubation with TasQ in solution at concentrations ranging from 1 to 100 μM (FIG. 19). […] TasQ in solution inhibits this strong interaction by 50% at 10 μM (FIG. 20). […]

[2] = target: T2, fl-NCoR1 (Homo sapiens, UniProt O75376); test: SPR binding of TasQ to immobilized fl-NCoR1; details: compound in solution
T2 construct: (N-terminal FLAG-tagged; AA 1-2440); FLAG (N); purchased Abcam ab82239
Method: as §1
B. Binding of TasQ to immobilized HDAC4 and NCoR1. Different variants of HDAC4 (full-length wild-type and mutant forms and the truncated protein) and full-length NCoR1 were immobilized on a CM5 chip using random amine coupling. Briefly, proteins were dissolved in 10 mM sodium acetate buffer at pH 5.0 or 5.5 and immobilized to the aimed level using the standard protocol from GE Healthcare. Serially diluted TasQ in HBS-P buffer with 10 or 20 μM Zn was injected (for 2 or 3 min at a flow rate of 30 μl/min) either directly or after a 1st injection of 1 mM DTT to reduce cysteines in the zinc conformation site in HDAC4. Regeneration was made with a short pulse of HBS-EP.
Thus, TasQ's inhibition of HDAC4/NCoR1 formation involves only its binding to HDAC4. […]

[3] = target: S100A9 (Homo sapiens, UniProt P06702); details: Kallberg et al. 2012; cited from earlier work
[4] = Water solubility; format: physicochemical
[5] = target: T3, Human Aryl Hydrocarbon Receptor (AHR) (Homo sapiens, UniProt P35869); test: Human AHR reporter assay (cell-based  luciferase reporter gene assay)
T3 construct: purchased Indigo Biosciences IB06001
T3 sequence (P35869 11-848): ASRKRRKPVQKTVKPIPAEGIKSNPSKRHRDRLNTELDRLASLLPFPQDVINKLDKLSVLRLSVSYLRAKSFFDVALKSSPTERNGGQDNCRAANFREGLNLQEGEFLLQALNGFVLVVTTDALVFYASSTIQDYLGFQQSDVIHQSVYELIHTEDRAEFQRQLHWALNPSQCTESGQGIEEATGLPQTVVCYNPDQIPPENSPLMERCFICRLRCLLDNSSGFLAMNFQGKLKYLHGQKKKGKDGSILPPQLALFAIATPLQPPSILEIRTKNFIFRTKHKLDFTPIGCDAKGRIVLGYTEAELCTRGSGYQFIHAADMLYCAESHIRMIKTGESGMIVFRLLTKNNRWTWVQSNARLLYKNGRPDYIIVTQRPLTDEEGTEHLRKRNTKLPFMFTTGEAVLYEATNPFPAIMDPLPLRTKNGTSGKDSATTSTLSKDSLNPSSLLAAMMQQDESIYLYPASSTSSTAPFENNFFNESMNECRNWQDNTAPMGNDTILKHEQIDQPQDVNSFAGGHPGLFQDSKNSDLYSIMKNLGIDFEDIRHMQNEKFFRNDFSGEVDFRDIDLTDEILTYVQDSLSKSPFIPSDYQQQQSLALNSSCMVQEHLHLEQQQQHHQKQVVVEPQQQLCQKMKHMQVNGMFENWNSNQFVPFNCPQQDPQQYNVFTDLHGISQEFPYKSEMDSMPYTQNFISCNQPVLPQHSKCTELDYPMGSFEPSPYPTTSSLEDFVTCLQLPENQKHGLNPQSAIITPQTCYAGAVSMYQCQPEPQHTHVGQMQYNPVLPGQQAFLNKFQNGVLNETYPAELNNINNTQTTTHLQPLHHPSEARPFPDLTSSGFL
From the text: AHR Agonist Assay. Human Aryl Hydrocarbon Receptor (AHR) Reporter Assay System [Indigo Biosciences (State College, Pa) Cat #IB06001] was used as per the manufacturer's protocol.
Thus, a series of quinoline-3-carboxamide analogs were synthesized focusing upon adduct changes at the aniline-N. These analogs were synthesized as described in Example 1, and were initially screened for their AHR agonist activity using the in vitro human cell-based ARE-driven luciferase reporter gene assay (Table 3).

T1 sequence (P56524 whole entry, one chain of several): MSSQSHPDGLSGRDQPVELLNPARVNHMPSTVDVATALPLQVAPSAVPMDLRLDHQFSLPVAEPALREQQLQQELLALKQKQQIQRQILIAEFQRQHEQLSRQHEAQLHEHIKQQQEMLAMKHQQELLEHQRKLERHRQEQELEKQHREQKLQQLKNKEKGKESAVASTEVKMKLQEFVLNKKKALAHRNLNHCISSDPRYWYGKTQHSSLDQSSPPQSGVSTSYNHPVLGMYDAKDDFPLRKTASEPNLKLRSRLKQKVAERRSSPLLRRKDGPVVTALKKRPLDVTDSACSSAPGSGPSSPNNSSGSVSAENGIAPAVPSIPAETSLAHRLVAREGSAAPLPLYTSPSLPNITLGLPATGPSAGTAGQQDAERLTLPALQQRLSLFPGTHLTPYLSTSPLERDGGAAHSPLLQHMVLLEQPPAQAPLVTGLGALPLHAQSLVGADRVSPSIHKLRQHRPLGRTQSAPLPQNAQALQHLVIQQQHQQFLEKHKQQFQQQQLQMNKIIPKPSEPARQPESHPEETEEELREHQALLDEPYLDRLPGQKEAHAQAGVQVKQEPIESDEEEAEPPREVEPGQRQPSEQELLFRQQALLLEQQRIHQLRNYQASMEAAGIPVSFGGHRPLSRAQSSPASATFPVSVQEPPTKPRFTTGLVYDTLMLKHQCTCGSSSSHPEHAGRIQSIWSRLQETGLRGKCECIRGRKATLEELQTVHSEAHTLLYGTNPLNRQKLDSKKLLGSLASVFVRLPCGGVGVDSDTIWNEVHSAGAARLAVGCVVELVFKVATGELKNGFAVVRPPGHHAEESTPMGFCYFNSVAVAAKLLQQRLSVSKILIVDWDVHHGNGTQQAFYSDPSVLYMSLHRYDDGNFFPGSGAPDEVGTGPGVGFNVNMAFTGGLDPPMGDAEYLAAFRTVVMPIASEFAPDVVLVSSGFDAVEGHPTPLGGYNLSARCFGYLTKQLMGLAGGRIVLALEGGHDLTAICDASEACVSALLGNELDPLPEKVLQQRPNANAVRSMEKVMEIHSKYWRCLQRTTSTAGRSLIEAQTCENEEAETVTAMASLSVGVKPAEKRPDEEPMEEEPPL
S100A9, sequence (P06702 whole entry, species assumed): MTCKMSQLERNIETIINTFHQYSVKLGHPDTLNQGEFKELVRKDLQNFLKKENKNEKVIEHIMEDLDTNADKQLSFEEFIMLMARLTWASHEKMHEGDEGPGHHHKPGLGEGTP
T2 sequence (O75376 whole entry, the tested form may be a part): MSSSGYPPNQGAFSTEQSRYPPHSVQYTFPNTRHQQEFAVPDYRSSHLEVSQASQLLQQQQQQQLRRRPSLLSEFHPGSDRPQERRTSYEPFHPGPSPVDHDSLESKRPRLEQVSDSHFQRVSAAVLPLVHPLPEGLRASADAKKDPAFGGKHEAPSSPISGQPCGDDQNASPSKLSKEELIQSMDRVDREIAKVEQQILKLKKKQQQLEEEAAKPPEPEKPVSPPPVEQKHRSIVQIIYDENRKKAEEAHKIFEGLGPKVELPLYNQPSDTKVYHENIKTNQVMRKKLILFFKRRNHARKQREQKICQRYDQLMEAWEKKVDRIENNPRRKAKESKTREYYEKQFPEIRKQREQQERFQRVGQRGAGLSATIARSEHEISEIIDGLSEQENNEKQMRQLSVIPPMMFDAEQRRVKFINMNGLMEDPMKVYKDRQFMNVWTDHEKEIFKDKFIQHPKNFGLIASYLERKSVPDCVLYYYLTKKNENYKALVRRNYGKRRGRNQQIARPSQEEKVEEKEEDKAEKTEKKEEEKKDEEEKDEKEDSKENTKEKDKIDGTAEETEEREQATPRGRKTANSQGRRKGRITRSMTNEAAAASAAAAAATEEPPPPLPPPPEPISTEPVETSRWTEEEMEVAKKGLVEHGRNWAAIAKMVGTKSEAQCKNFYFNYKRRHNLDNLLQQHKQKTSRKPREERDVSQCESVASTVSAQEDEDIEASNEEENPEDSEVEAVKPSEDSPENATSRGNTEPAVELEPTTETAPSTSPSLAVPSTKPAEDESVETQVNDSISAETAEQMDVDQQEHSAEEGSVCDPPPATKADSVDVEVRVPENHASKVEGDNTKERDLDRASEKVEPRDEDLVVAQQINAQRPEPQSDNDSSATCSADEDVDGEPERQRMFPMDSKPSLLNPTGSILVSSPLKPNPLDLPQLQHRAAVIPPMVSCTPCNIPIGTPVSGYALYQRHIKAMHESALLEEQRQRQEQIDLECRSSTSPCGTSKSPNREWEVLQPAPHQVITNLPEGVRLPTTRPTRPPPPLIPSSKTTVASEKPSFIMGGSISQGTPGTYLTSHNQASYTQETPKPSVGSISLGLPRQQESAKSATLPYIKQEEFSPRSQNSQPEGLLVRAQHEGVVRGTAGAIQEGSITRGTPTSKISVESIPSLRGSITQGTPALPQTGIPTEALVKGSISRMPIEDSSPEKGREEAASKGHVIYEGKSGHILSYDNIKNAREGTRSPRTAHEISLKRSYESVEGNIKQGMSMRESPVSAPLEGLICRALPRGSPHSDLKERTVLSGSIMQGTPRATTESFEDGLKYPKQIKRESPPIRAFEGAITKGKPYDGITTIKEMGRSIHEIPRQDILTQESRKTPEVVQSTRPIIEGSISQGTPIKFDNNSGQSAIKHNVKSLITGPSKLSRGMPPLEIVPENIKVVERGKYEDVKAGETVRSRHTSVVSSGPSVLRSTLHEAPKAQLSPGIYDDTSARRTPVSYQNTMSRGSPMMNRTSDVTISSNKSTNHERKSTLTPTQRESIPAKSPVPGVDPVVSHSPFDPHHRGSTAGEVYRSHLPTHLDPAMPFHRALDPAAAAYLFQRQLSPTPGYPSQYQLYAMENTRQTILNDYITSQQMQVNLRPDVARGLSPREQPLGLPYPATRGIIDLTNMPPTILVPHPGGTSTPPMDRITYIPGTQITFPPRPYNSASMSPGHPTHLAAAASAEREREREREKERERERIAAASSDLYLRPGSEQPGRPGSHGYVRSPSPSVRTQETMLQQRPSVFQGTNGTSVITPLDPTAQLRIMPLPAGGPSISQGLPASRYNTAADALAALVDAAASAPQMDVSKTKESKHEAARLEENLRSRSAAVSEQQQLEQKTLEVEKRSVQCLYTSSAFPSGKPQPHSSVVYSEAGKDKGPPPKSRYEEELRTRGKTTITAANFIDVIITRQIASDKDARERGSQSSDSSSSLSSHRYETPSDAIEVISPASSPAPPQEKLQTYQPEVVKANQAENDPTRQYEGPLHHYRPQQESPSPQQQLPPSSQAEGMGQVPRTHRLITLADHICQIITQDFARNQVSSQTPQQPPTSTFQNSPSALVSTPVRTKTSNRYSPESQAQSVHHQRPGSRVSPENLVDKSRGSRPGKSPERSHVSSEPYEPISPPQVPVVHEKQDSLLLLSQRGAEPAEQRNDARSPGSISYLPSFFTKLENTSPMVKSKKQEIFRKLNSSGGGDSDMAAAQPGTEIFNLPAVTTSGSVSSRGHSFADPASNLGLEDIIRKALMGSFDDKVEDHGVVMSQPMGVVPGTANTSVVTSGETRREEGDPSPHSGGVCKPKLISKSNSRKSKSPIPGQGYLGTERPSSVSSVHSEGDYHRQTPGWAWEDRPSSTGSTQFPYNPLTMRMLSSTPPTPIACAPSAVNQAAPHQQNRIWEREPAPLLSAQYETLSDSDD

SMILES	inhibition at 10 µM ([1]; at 10 μM, read-out: inhibition of fl-NCoR1 binding to immobilized fl-HDAC4) [%]	IC50 ([1]; sigmoidal dose-response fit, read-out: IC50 for competitive inhibition of fl-HDAC4 binding to immobilized NCoR1) [µM]	binding to immobilized fl-NCoR1 protein [2]	affinity to S100A9 [3]	water solubility compared with TasQ [4]	EC50 ([5]; luciferase reporter gene assay, read-out: AHR agonist EC50) [nM]	EC50 ([5]; n = 4 independent assays/analog, read-out: AHR Agonist Response [EC50] (nM +/−SD)) [nM]
COc1cccc2c1c(O)c(C(=O)N(C)c1ccc(C(F)(F)F)cc1)c(=O)n2C [TasQ, Tasquinimod]	50	1.1	no detectable binding	nanomolar (nM) affinity	–	–	–
COc1cccc2c1c(O)c(C(=O)N(c1ccc(C(F)(F)F)cc1)C1CCCCC1)c(=O)n2C [ESATA-20]	–	–	–	–	less water soluble than TasQ	10000	10200
